# Measured values taken from the supplement of paper PMC10307832.
# Legend:
# Experiment in all cases: relative viability (nuclei count vs DMSO), 5 days (fraction); higher = more cells survive
# [1] = compound: Nc1ccn([C@@H]2O[C@H](CO)[C@@H](O)C2(F)F)c(=O)n1 [Gemcitabine]
# How it was run: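 Viability was read as treated-well nuclei divided by vehicle-well nuclei, using the median across plates. Lung cancer cell lines in 1536-well plates were kept overnight at 37 °C, pinned with five √10-spaced library-drug doses, and after 5 days were Hoechst-stained, imaged at 4× and counted in MetaXpress. Plates passed only with control CV below 25% and at least one doubling.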
# [2] = compound: Nc1ccn([C@@H]2O[C@H](CO)[C@@H](O)C2(F)F)c(=O)n1 [Gemcitabine] + CC(=O)Nc1cccc(-n2c(=O)n(C3CC3)c(=O)c3c(Nc4ccc(I)cc4F)n(C)c(=O)c(C)c32)c1 [Trametinib] (partner 0.02 µM)
# How it was run: (§1)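 Each reported value is a median over duplicate plates. It expresses relative viability: treated-well nuclei count divided by vehicle-well nuclei count. Lung cancer cell lines in 1536-well plates were dosed by pin tool a day after seeding, alone with one drug or with a fixed anchor-drug dose plus five library-drug doses (not always all listed) in √10 steps, and nuclei were counted after 5 days.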
# [3] = compound: Nc1ccn([C@@H]2O[C@H](CO)[C@@H](O)C2(F)F)c(=O)n1 [Gemcitabine] + Cc1cc(Nc2cc(N3CCN(C)CC3)nc(Sc3ccc(NC(=O)C4CC4)cc3)n2)n[nH]1 [Tozasertib] (partner 0.1 µM)
# How it was run: as §1
# [4] = compound: Nc1ccn([C@@H]2O[C@H](CO)[C@@H](O)C2(F)F)c(=O)n1 [Gemcitabine] + NC(=O)Nc1cc(-c2cccc(F)c2)sc1C(=O)N[C@H]1CCCNC1 [AZD7762] (partner 0.2 µM)
# How it was run: as §1
Cell Line,relative viability ([1]; 0.001 µM),relative viability ([1]; 0.003162 µM),relative viability ([1]; 0.01 µM),relative viability ([1]; 0.03162 µM),relative viability ([1]; 0.1 µM),relative viability ([2]; first compound 0.001 µM),relative viability ([2]; first compound 0.003162 µM),relative viability ([2]; first compound 0.01 µM),relative viability ([2]; first compound 0.03162 µM),relative viability ([2]; first compound 0.1 µM),relative viability ([3]; first compound 0.001 µM),relative viability ([3]; first compound 0.003162 µM),relative viability ([3]; first compound 0.01 µM),relative viability ([3]; first compound 0.03162 µM),relative viability ([3]; first compound 0.1 µM),relative viability ([4]; first compound 0.001 µM),relative viability ([4]; first compound 0.003162 µM),relative viability ([4]; first compound 0.01 µM),relative viability ([4]; first compound 0.03162 µM),relative viability ([4]; first compound 0.1 µM)
LK-2,0.997,0.915,0.708,0.255,0.187,0.926,0.65,0.731,0.206,0.167,0.162,0.157,0.21,0.183,0.165,0.455,0.251,0.0955,0.105,0.0964
NCI-H1993,0.974,0.958,0.604,0.441,0.558,0.508,0.457,0.503,0.351,0.438,0.54,0.633,0.619,0.494,0.531,0.74,0.483,0.398,0.439,0.346
NCI-H838,0.987,1.15,1.05,0.467,0.153,0.51,0.621,0.561,0.274,0.127,0.283,0.277,0.263,0.164,0.121,0.93,0.886,0.648,0.565,0.616
NCI-H1437,1.01,0.854,0.705,0.362,0.21,0.523,0.611,0.384,0.241,0.164,0.447,0.418,0.347,0.297,0.156,1.16,0.951,0.171,0.159,0.124
NCI-H2170,0.99,0.999,0.86,0.498,0.158,1.02,0.907,0.785,0.167,0.109,0.824,0.735,0.469,0.154,0.134,0.889,0.771,0.128,0.106,0.108
SW 900,0.802,0.424,0.153,0.134,0.141,0.722,0.609,0.119,0.142,0.13,0.462,0.241,0.127,0.0969,0.109,0.423,0.214,0.109,0.147,0.112
LCLC-103H,0.933,1.07,1,0.769,0.376,0.61,0.695,0.709,0.712,0.56,0.491,0.399,0.395,0.176,0.139,0.788,0.761,0.66,0.24,0.215
NCI-H441,0.993,0.63,0.292,0.13,0.139,0.46,0.318,0.196,0.131,0.132,0.569,0.394,0.25,0.196,0.197,0.603,0.134,0.11,0.165,0.128
BEN,0.973,0.726,0.282,0.152,0.117,1.02,0.615,0.311,0.245,0.226,0.56,0.559,0.419,0.24,0.175,0.441,0.252,0.184,0.184,0.253
LC-2-ad,1.03,0.763,0.762,0.316,0.159,0.926,1.01,0.845,0.645,0.236,0.497,0.407,0.379,0.191,0.2,0.86,0.852,0.25,0.185,0.18
RERF-LC-KJ,1.01,1,0.973,0.496,0.247,0.893,0.827,0.845,0.386,0.24,0.596,0.543,0.578,0.323,0.229,1.14,1,0.951,0.233,0.181
NCI-H522,1.12,0.812,0.418,0.42,0.388,0.705,0.628,0.36,0.347,0.319,0.555,0.396,0.379,0.354,0.312,0.709,0.384,0.286,0.323,0.204
NCI-H1915,0.981,1.03,0.98,0.865,0.475,0.317,0.308,0.286,0.281,0.188,0.461,0.462,0.397,0.317,0.193,0.768,0.662,0.656,0.127,0.0991
NCI-H596,1.32,0.929,0.564,0.31,0.283,0.918,0.593,0.392,0.336,0.321,0.922,0.589,0.391,0.306,0.223,1.24,0.717,0.275,0.319,0.235
NCI-H2126,0.971,1,0.906,0.77,0.458,0.59,0.57,0.514,0.418,0.305,0.866,0.802,0.756,0.471,0.245,0.995,1.03,0.891,0.265,0.205
